# Assay results taken from patent US12454529B2, “Piperazine cyclic ureas” (SIRONAX LTD., priority 2020, dated 2025).
# Test system: HT-29 cells
# Test: HT-29 cell necrosis/necroptosis inhibition (TNF-α + SMAC mimetic + zVAD-FMK; CellTiter-Glo cell viability)
# Format: cell-based
# Conditions: Homo sapiens, HT-29, 20 h, read-out: EC50 (Cell activity; Necrosis/Necroptosis Inhibitory Activity, Compounds 1-142)
# Summary of the method: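 Necroptosis was driven by TNF-α 10 ng/ml plus SMAC mimetic 6 μM and zVAD-FMK 10 μM in serum-free medium, with compounds as a 10-point threefold titration. After 20 h at 37 °C, ATP-based luminescence was read; EC50 values are geometric means of duplicate curves.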
row,SMILES,EC50
1,"Cc1nn(C[C@@H]2CO2)c(C)c1-c1nc(N2CCN(C(=O)N3N=CC[C@H]3c3cc(F)cc(C#N)c3)CC2)ncc1F [Compound 133, 3-((S)-1-(4-(4-(3,5-dimethyl-1-(((R)-oxiran-2-yl)methyl)-1H-pyrazol-4-yl)-5-fluoropyrimidin-2-yl)piperazine-1-carbonyl)-4,5-dihydro-1H-pyrazol-5-yl) fluorobenzonitrile]",0.0001 to 0.1 µM

# Same assay, conditions: Homo sapiens; HT-29 cells, TNF-α 10 ng/ml + SMAC mimetic 6 μM + zVAD-FMK 10 μM, 20 hours; geometric mean, 10 points in duplicate; read-out: EC50 (Cell activity; Necrosis/Necroptosis Inhibitory Activity, Compounds 1-142)
row,SMILES,EC50
1,"Cc1nn(C)cc1-c1nc(N2CCN(C(=O)N3N=CC[C@H]3c3cc(F)cc(F)c3)CC2)ncc1F [Compound 14, (S)-(5-(3,5-difluorophenyl)-4,5-dihydro-1H-pyrazol-1-yl)(4-(4-(1,3-dimethyl-1H-pyrazol-4-yl)-5-fluoropyrimidin-2-yl)piperazin-1-yl)methanone]",0.0001 to 0.1 µM
2,"Cc1cc(-c2nc(N3CCN(C(=O)N4N=CC[C@H]4c4cc(F)cc(C#N)c4)CC3)ncc2F)n(C)n1 [Compound 84, (S)-3-(1-(4-(4-(1,3-dimethyl-1H-pyrazol-5-yl)-5-fluoropyrimidin-2-yl)piperazine-1-carbonyl)-4,5-dihydro-1H-pyrazol-5-yl)-5-fluorobenzonitrile]",0.0001 to 0.1 µM
3,"Cn1cc(-c2nc(N3CCN(C(=O)N4N=CC[C@H]4c4cc(F)cc(F)c4)CC3)ncc2F)ccc1=O [Compound 89, (S)-5-(2-(4-(5-(3,5-difluorophenyl)-4,5-dihydro-1H-pyrazole-1-carbonyl)piperazin-1-yl)-5-fluoropyrimidin-4-yl)-1-methylpyridin-2(1H)-one]",0.0001 to 0.1 µM
4,"Cn1nccc1-c1nc(N2CCN(C(=O)N3N=CC[C@H]3c3cc(F)cc(C#N)c3)CC2)ncc1F [Compound 69, (S)-3-fluoro-5-(1-(4-(5-fluoro-4-(1-methyl-1H-pyrazol-5-yl)pyrimidin-2-yl)piperazine-1-carbonyl)-4,5-dihydro-1H-pyrazol-5-yl)benzonitrile]",0.0001 to 0.1 µM
5,"Cc1cc(C(N)=O)cn1-c1nc(N2CCN(C(=O)N3N=CC[C@H]3c3cc(F)cc(F)c3)CC2)ncc1F [Compound 92, (S)-1-(2-(4-(5-(3,5-difluorophenyl)-4,5-dihydro-1H-pyrazole-1-carbonyl)piperazin-1-yl)-5-fluoropyrimidin-4-yl)-5-methyl-1H-pyrrole-3-carboxamide]",0.0001 to 0.1 µM
6,"NC(=O)Cn1ccc(-c2nc(N3CCN(C(=O)N4N=CC[C@H]4c4cc(F)cc(F)c4)CC3)ncc2F)n1 [Compound 29, (S)-2-(3-(2-(4-(5-(3,5-difluorophenyl)-4,5-dihydro-1H-pyrazole-1-carbonyl)piperazin-1-yl)-5-fluoropyrimidin-4-yl)-1H-pyrazol-1-yl)acetamide]",0.0001 to 0.1 µM
7,"O=C(N1CCN(c2ncc(F)c(-c3[nH]nnc3C(F)(F)F)n2)CC1)N1N=CC[C@H]1c1cc(F)cc(F)c1 [Compound 105, (S)-(5-(3,5-difluorophenyl)-4,5-dihydro-1H-pyrazol-1-yl)(4-(5-fluoro-4-(4-(trifluoromethyl)-1H-1,2,3-triazol-5-yl)pyrimidin-2-yl)piperazinyl)methanone]",0.0001 to 0.1 µM
8,"O=C(N1CCN(c2ncc(F)c(-c3cnn(CCO)c3)n2)CC1)N1N=CC[C@H]1c1cc(F)cc(F)c1 [Compound 60, (S)-(5-(3,5-difluorophenyl)-4,5-dihydro-1H-pyrazol-1-yl)(4-(5-fluoro-4-(1-(2-hydroxyethyl)-1H-pyrazol-4-yl)pyrimidin-2-yl)piperazin-1-yl)methanone]",0.0001 to 0.1 µM
9,"Cc1cc(-c2nc(N3CCN(C(=O)N4N=CC[C@H]4c4cncc(F)c4)CC3)ncc2F)n(C)n1 [Compound 86, (S)-(4-(4-(1,3-dimethyl-1H-pyrazol-5-yl)-5-fluoropyrimidinyl)piperazin-1-yl)(5-(5-fluoropyridin-3-yl)-4,5-dihydro-1H-pyrazol-1-yl)methanone]",0.0001 to 0.1 µM

# Same assay, conditions: Homo sapiens; HT-29 cells, TNF-α 10 ng/ml + SMAC mimetic 6 μM + zVAD-FMK 10 μM, 20 hours; geometric mean, 10 points in duplicate; read-out: EC50 (Cell activity; Necrosis/Necroptosis Inhibitory Activity, Compounds 143-323)
row,SMILES,EC50
1,"Cc1nc(C(N)=O)nn1-c1nc(N2CCN(C(=O)N3N=CC[C@H]3c3cc(F)cc(F)c3)CC2)ncc1F [Compound 252, (S)-1-(2-(4-(5-(3,5-difluorophenyl)-4,5-dihydro-1H-pyrazole-1-carbonyl)piperazin-1-yl)-5-fluoropyrimidin-4-yl)-5-methyl-1H-1,2,4-triazole-3-carboxamide]",0.0001 to 0.1 µM
2,"Cc1nc(C)n(-c2nc(N3CCN(C(=O)N4N=CCC4c4csc(C)n4)CC3)ncc2F)n1 (centres unmarked) [Compound 213, (4-(4-(3,5-dimethyl-1H-1,2,4-triazol-1-yl)-5-fluoropyrimidin-2-yl)piperazin-1-yl)(5-(2-methylthiazol-4-yl)-4,5-dihydro-1H-pyrazol-1-yl)methanone]",0.1 to 1 µM
3,"Cc1nc(C)n(-c2nc(N3CCN(C(=O)N4N=CCC4c4nccs4)CC3)ncc2F)n1 (centres unmarked) [Compound 217, (4-(4-(3,5-dimethyl-1H-1,2,4-triazol-1-yl)-5-fluoropyrimidin-2-yl)piperazin-1-yl)(5-(thiazol-2-yl)-4,5-dihydro-1H-pyrazol-1-yl)methanone]",0.0001 to 0.1 µM
4,"Cc1nc(C)n(-c2nc(N3CCN(C(=O)N4N=CC[C@H]4c4cncc(F)c4)CC3)ncc2F)n1 [Compound 248, (S)-(4-(4-(3,5-dimethyl-1H-1,2,4-triazol-1-yl)-5-fluoropyrimidin-2-yl)piperazin-1-yl)(5-(5-fluoropyridin-3-yl)-4,5-dihydro-1H-pyrazol-1-yl)methanone]",0.0001 to 0.1 µM
5,"Cc1cnn(C)c1-c1ccc(F)c(N2CCN(C(=O)N3N=CCC3c3cncs3)CC2)n1 (centres unmarked) [Compound 296, (4-(6-(1,4-dimethyl-1H-pyrazol-5-yl)-3-fluoropyridin-2-yl)piperazinyl)(5-(thiazol-5-yl)-4,5-dihydro-1H-pyrazol-1-yl)methanone]",0.0001 to 0.1 µM
6,"Cc1nc(C)n(-c2nc(N3CCN(C(=O)N4N=CC[C@H]4c4cnc(C)s4)CC3)ncc2F)n1 [Compound 240, (S)-(4-(4-(3,5-dimethyl-1H-1,2,4-triazol-1-yl)-5-fluoropyrimidin-2-yl)piperazin-1-yl)(5-(2-methylthiazol-5-yl)-4,5-dihydro-1H-pyrazol-1-yl)methanone]",0.0001 to 0.1 µM
7,"N#Cc1cnn(-c2ncc(F)c(N3CCN(C(=O)N4N=CC[C@H]4c4cc(F)cc(F)c4)CC3)n2)c1 [Compound 218, (S)-1-(4-(4-(5-(3,5-difluorophenyl)-4,5-dihydro-1H-pyrazole-1-carbonyl)piperazin-1-yl)-5-fluoropyrimidin-2-yl)-1H-pyrazole-4-carbonitrile]",0.0001 to 0.1 µM
8,"Cc1cnn(C)c1-c1cc(N2CCN(C(=O)N3N=CCC3c3cncs3)CC2)c(F)cn1 (centres unmarked) [Compound 293, (4-(2-(1,4-dimethyl-1H-pyrazol-5-yl)-5-fluoropyridin-4-yl)piperazin-1-yl)(5-(thiazol-5-yl)-4,5-dihydro-1H-pyrazol-1-yl)methanone]",0.0001 to 0.1 µM
9,"Cc1nc(C)n(-c2nc(N3CCN(C(=O)N4N=CCC4c4cnc(C)s4)CC3)ncc2F)n1 (centres unmarked) [Compound 291, (4-(4-(3,5-dimethyl-1H-1,2,4-triazol-1-yl)-5-fluoropyrimidin-2-yl)piperazin-1-yl)(5-(2-methylthiazol-5-yl)-4,5-dihydro-1H-pyrazol-1-yl)methanone]",0.0001 to 0.1 µM
10,"Cn1ncnc1-c1ccc(F)c(N2CCN(C(=O)N3N=CCC3c3ncccc3Cl)CC2)n1 (centres unmarked) [Compound 222, (5-(3-chloropyridin-2-yl)-4,5-dihydro-1H-pyrazol-1-yl)(4-(3-fluoro-6-(1-methyl-1H-1,2,4-triazol-5-yl)pyridin-2-yl)piperazin-1-yl)methanone]",0.0001 to 0.1 µM
11,"Cc1nn(-c2ccnc(N3CCN(C(=O)N4N=CC[C@H]4c4cncc(F)c4)CC3)n2)c(C)c1Cl [Compound 287, (S)-(4-(4-(4-chloro-3,5-dimethyl-1H-pyrazol-1-yl)pyrimidin-2-yl)piperazin-1-yl)(5-(5-fluoropyridin-3-yl)-4,5-dihydro-1H-pyrazol-1-yl)methanone]",0.0001 to 0.1 µM
12,"Cc1nc(C#N)nn1-c1nc(N2CCN(C(=O)N3N=CC[C@H]3c3cc(F)cc(F)c3)CC2)ncc1F [Compound 254, (S)-1-(2-(4-(5-(3,5-difluorophenyl)-4,5-dihydro-1H-pyrazole-1-carbonyl)piperazin-1-yl)-5-fluoropyrimidin-4-yl)-5-methyl-1H-1,2,4-triazole-3-carbonitrile]",0.0001 to 0.1 µM
13,"Cn1nc(CF)nc1-c1ccnc(N2CCN(C(=O)N3N=CC[C@H]3c3cc(F)cc(C#N)c3)CC2)n1 [Compound 169, (S)-3-fluoro-5-(1-(4-(4-(3-(fluoromethyl)-1-methyl-1H-1,2,4-triazol-5-yl)pyrimidin-2-yl)piperazine-1-carbonyl)-4,5-dihydro-1H-pyrazol-5-yl)benzonitrile]",0.0001 to 0.1 µM
14,"Cc1nc(C)n(-c2ncc(F)c(N3CCN(C(=O)N4N=CC[C@H]4c4cc(F)cc(C#N)c4)CC3)n2)n1 [Compound 258, (S)-3-(1-(4-(2-(3,5-dimethyl-1H-1,2,4-triazol-1-yl)-5-fluoropyrimidin-4-yl)piperazine-1-carbonyl)-4,5-dihydro-1H-pyrazol-5-yl)-5-fluorobenzonitrile]",0.0001 to 0.1 µM
15,"Cc1nc(C(F)(F)F)nn1-c1nc(N2CCN(C(=O)N3N=CC[C@H]3c3cc(F)cc(C#N)c3)CC2)ncc1F [Compound 207, (S)-3-fluoro-5-(1-(4-(5-fluoro-4-(5-methyl-3-(trifluoromethyl)-1H-1,2,4-triazol-1-yl)pyrimidin-2-yl)piperazine-1-carbonyl)-4,5-dihydro-1H-pyrazol-5-yl)benzonitrile]",0.0001 to 0.1 µM
16,"N#Cc1cc(F)cc([C@@H]2CC=NN2C(=O)N2CCN(c3nc(-n4cc(C#N)cn4)ncc3F)CC2)c1 [Compound 219, (S)-1-(4-(4-(5-(3-cyano-5-fluorophenyl)-4,5-dihydro-1H-pyrazole-1-carbonyl)piperazin-1-yl)-5-fluoropyrimidin-2-yl)-1H-pyrazole-4-carbonitrile]",0.0001 to 0.1 µM
